Measured values reported in PubChem BioAssay AID2060895 (Molecular Pharmacology Branch, DTP, NCI, 2025).

Tested on: PDC 899932-113-R3-J6 complex spheroid viability
Test: Anticancer human tumor 899932-113-R3-J6-PDC patient-derived melanoma cell line growth inhibition [RAS]
Settings: for IC50: curve of first compound; for viability, T/C: stronger effect = lower value
From the text: RAS pathway inhibitors in Combinations in Complex Spheroids
A high-throughput screen of multi-cell type tumor spheroids was designed to identify active combinations of RAS pathway inhibitors and targeted small molecules. Complex spheroids include a stromal component modeled by human endothelial cells (HUVEC) and fibroblasts modeled by human mesenchymal stem cells (MSCs). The concentration ranges selected for each drug and investigational agent were based upon clinically achievable concentrations if the clinical Cmax of the agent was known.
Compounds. The drugs and investigational agents: abemaciclib (NSC768073), cobimetinib (NSC768068), divarasib (GDC6063, NSC841802), docetaxel (NSC628503), GDC-1971 (RLY-1971, NSC841576), gemcitabine (NSC613327), inavolisib (NSC800729), ipatasertib (NSC767898), KB-0742 (NSC834161), MRTX-1133 (NSC836407), osimertinib (NSC779217), RMC-4630 (NSC839698), RMC-6236 (NSC851965), RMC-6291 (NSC852671), Ro-3306 (NSC812927), sapanisertib (NSC764658), SN-38 (NSC673596), staurosporine (NSC755774), SY5609 (NSC837396), and tovorafenib (DAY101, NSC766906), were obtained from the National Cancer Institute (NCI) Developmental Therapeutics Program Chemical Repository. The FDA-approved anticancer drug set is available from the NCI Developmental Therapeutics Program. […] The stock solutions were prepared in dimethyl sulfoxide (DMSO, Sigma-Aldrich, St. Louis, MO, cat. D2650) at 800-fold the tested concentration and stored at -70 degrees C prior to their use. All drugs and investigational agents were tested over a range starting from a high concentration at or near the clinical Cmax and decreasing in half-log increments. If the clinical Cmax for an agent had not been determined, the highest concentration tested was 10 microM.
Cell Culture. All cells were maintained in an incubator at 37 degrees C and 5% CO2 with 95% humidity. The PDC lines were cultured according to standard operating procedures established by the NCI PDMR. All PDCs were thawed and cultured in Matrigel-coated flasks prepared with a working solution of 1X Ham's F-12 nutrient mix, without supplementation (Invitrogen, Waltham, MA, cat. 11765054), 100 U/mL penicillin-streptomycin (Invitrogen, cat. 15140122), and 2.5% Matrigel (Corning Inc., Corning, NY, cat. 354248) for the first three passages. The 362531-283-R-J2-PDC and 782815-120-R-J1-PDC lines were cultured in 6C/Colon 1B media, which includes advanced DMEM/F-12 (Thermo Fisher Scientific, cat. 12634028), 10 mM HEPES (Thermo Fisher Scientific, cat. 15630080), 1X GlutaMAX supplement (Thermo Fisher Scientific, cat. 35050061), 0.1 mg/mL primocin (InvivoGen, San Diego, CA, cat. ant-pm-2), 10% defined fetal bovine serum, heat inactivated (HyClone Laboratories Inc., Logan, UT, cat. SH30070.03HI), 50% L-WRN conditioned media (ATCC, cat. CRL-3276), 1.25 mM N-Acetyl-L-cysteine (Sigma-Aldrich, cat. A9165), 10 mM nicotinamide (Sigma-Aldrich, cat. N0636), 1X B-27 supplement (Thermo Fisher Scientific, cat. 17504044), 1X N-2 supplement (Thermo Fisher Scientific, cat. 17502048), 50 ng/mL human EGF (Thermo Fisher Scientific, cat. PHG0311), and 10 microM Y-27632 dihydrochloride (Tocris Bioscience, cat. 1254). The K12877-001-R-J1-PDC line was cultured in 6I media, which includes all 6C/Colon 1B media plus 10 ng/mL human FGF-10 (PeproTech, cat. 100-26), 1 ng/mL human FGF-2 (PeproTech, cat. 100-18B), 1 µM prostaglandin E2 (Tocris Bioscience, cat. 2296), […] hydrocortisone (Sigma-Aldrich, cat. H4001), and […] bovine insulin (Sigma-Aldrich, cat. I6634). The K86415-001-R-J1-PDC line was cultured in 6D media, which includes all 6C/Colon 1B media components minus the L-WRN conditioned media. The 485176-168-R4-J1-PDC was cultured in PANC media, which includes all 6C/Colon 1B media plus 100 ng/mL human FGF-10 (PeproTech, cat. 100-26), 500 nM SB-431542 (Selleckchem, cat. S1067), and 10 nM gastrin (Tocris Bioscience, cat. 3006). […]

[1] = second compound 0.0316 µM, first compound 0.0316 µM
[2] = second compound 0.0316 µM, first compound 0.1 µM
[3] = second compound 0.0316 µM, first compound 0.316 µM
[4] = second compound 0.0316 µM, first compound 1 µM
[5] = second compound 0.0316 µM, first compound 3.16 µM
[6] = second compound 0.0316 µM, first compound 10 µM
[7] = second compound 0.1 µM, first compound 0.0316 µM
[8] = second compound 0.1 µM, first compound 0.1 µM
[9] = second compound 0.1 µM, first compound 0.316 µM
[10] = second compound 0.1 µM, first compound 1 µM
[11] = second compound 0.1 µM, first compound 3.16 µM
[12] = second compound 0.1 µM, first compound 10 µM
[13] = second compound 0.316 µM, first compound 0.0316 µM
[14] = second compound 0.316 µM, first compound 0.1 µM
[15] = second compound 0.316 µM, first compound 0.316 µM
[16] = second compound 0.316 µM, first compound 1 µM
[17] = second compound 0.316 µM, first compound 3.16 µM
[18] = second compound 0.316 µM, first compound 10 µM
[19] = second compound 1 µM, first compound 0.0316 µM
[20] = second compound 1 µM, first compound 0.1 µM
[21] = second compound 1 µM, first compound 0.316 µM
[22] = second compound 1 µM, first compound 1 µM
[23] = second compound 1 µM, first compound 3.16 µM
[24] = second compound 1 µM, first compound 10 µM
[25] = second compound 3.16 µM, first compound 0.0316 µM
[26] = second compound 3.16 µM, first compound 0.1 µM
[27] = second compound 3.16 µM, first compound 0.316 µM
[28] = second compound 3.16 µM, first compound 1 µM
[29] = second compound 3.16 µM, first compound 3.16 µM
[30] = second compound 3.16 µM, first compound 10 µM
[31] = second compound 10 µM, first compound 0.0316 µM
[32] = second compound 10 µM, first compound 0.1 µM
[33] = second compound 10 µM, first compound 0.316 µM
[34] = second compound 10 µM, first compound 1 µM
[35] = second compound 10 µM, first compound 3.16 µM
[36] = second compound 10 µM, first compound 10 µM
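Wherever viability, T/C is given: spheroids exposed to agents for seven days before readout; 100% = DMSO vehicle control wells.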

## CC1(O)CCCC1n1c(=O)c(C(F)F)cc2cnc(NC3CCN(S(C)(=O)=O)CC3)nc21 (stereo unspecified) + C#Cc1c(F)ccc2cc(O)cc(-c3ncc4c(N5CC6CCC(C5)N6)nc(OCC56CCCN5CC(F)C6)nc4c3F)c12
Second compound 0.0316 µM
  IC50: 2.47 µM
Second compound 0.1 µM
  IC50: 2.57 µM
Second compound 0.316 µM
  IC50: 3.2 µM
Second compound 1 µM
  IC50: 3.47 µM
Second compound 3.16 µM
  IC50: 3.05 µM
Second compound 10 µM
  IC50: 3.12 µM
[1]
  viability, T/C: 105%
[2]
  viability, T/C: 81.1%
[3]
  viability, T/C: 70.8%
[4]
  viability, T/C: 69.9%
[5]
  viability, T/C: 54.9%
[6]
  viability, T/C: 21.6%
[7]
  viability, T/C: 96.2%
[8]
  viability, T/C: 86.9%
[9]
  viability, T/C: 63.6%
[10]
  viability, T/C: 62.3%
[11]
  viability, T/C: 62%
[12]
  viability, T/C: 24.5%
[13]
  viability, T/C: 99.2%
[14]
  viability, T/C: 93%
[15]
  viability, T/C: 75.9%
[16]
  viability, T/C: 65.3%
[17]
  viability, T/C: 56.6%
[18]
  viability, T/C: 25.5%
[19]
  viability, T/C: 102%
[20]
  viability, T/C: 89.7%
[21]
  viability, T/C: 76.3%
[22]
  viability, T/C: 70%
[23]
  viability, T/C: 58.4%
[24]
  viability, T/C: 24.7%
[25]
  viability, T/C: 114%
[26]
  viability, T/C: 97.8%
[27]
  viability, T/C: 69.8%
[28]
  viability, T/C: 72.2%
[29]
  viability, T/C: 62.4%
[30]
  viability, T/C: 22.2%
[31]
  viability, T/C: 114%
[32]
  viability, T/C: 89%
[33]
  viability, T/C: 77.2%
[34]
  viability, T/C: 68.8%
[35]
  viability, T/C: 64.8%
[36]
  viability, T/C: 11.3%

## CCN1CCN(Cc2ccc(Nc3ncc(F)c(-c4cc(F)c5nc(C)n(C(C)C)c5c4)n3)nc2)CC1 + C#Cc1c(F)ccc2cc(O)cc(-c3ncc4c(N5CC6CCC(C5)N6)nc(OCC56CCCN5CC(F)C6)nc4c3F)c12
Second compound 0.0316 µM
  IC50: 0.502 µM
Second compound 0.1 µM
  IC50: 0.526 µM
Second compound 0.316 µM
  IC50: 0.524 µM
Second compound 1 µM
  IC50: 0.49 µM
Second compound 3.16 µM
  IC50: 0.526 µM
Second compound 10 µM
  IC50: 0.31 µM
Second compound 0.0316 µM, first compound 0.00316 µM
  viability, T/C: 105%
Second compound 0.0316 µM, first compound 0.01 µM
  viability, T/C: 97.1%
[1]
  viability, T/C: 98.9%
[2]
  viability, T/C: 83.4%
[3]
  viability, T/C: 69.8%
[4]
  viability, T/C: 23.9%
Second compound 0.1 µM, first compound 0.00316 µM
  viability, T/C: 109%
Second compound 0.1 µM, first compound 0.01 µM
  viability, T/C: 102%
[7]
  viability, T/C: 92.9%
[8]
  viability, T/C: 87%
[9]
  viability, T/C: 68.9%
[10]
  viability, T/C: 28.3%
Second compound 0.316 µM, first compound 0.00316 µM
  viability, T/C: 116%
Second compound 0.316 µM, first compound 0.01 µM
  viability, T/C: 92.8%
[13]
  viability, T/C: 94%
[14]
  viability, T/C: 92.7%
[15]
  viability, T/C: 69%
[16]
  viability, T/C: 26.5%
Second compound 1 µM, first compound 0.00316 µM
  viability, T/C: 115%
Second compound 1 µM, first compound 0.01 µM
  viability, T/C: 112%
[19]
  viability, T/C: 98.7%
[20]
  viability, T/C: 81.6%
[21]
  viability, T/C: 67.1%
[22]
  viability, T/C: 27.8%
Second compound 3.16 µM, first compound 0.00316 µM
  viability, T/C: 126%
Second compound 3.16 µM, first compound 0.01 µM
  viability, T/C: 112%
[25]
  viability, T/C: 100%
[26]
  viability, T/C: 86.2%
[27]
  viability, T/C: 71.4%
[28]
  viability, T/C: 28.5%
Second compound 10 µM, first compound 0.00316 µM
  viability, T/C: 125%
Second compound 10 µM, first compound 0.01 µM
  viability, T/C: 113%
[31]
  viability, T/C: 100%
[32]
  viability, T/C: 84.4%
[33]
  viability, T/C: 48.4%
[34]
  viability, T/C: 3.09%

## C[C@@H](NC(=O)c1ncnc(N)c1Cl)c1ncc(C(=O)Nc2cc(C(F)(F)F)c(Cl)cn2)s1 + C#Cc1c(F)ccc2cc(O)cc(-c3ncc4c(N5CC6CCC(C5)N6)nc(OCC56CCCN5CC(F)C6)nc4c3F)c12
Second compound 0.0316 µM
  IC50: 6.59 µM
Second compound 0.1 µM
  IC50: 6.77 µM
Second compound 0.316 µM
  IC50: 6.87 µM
Second compound 1 µM
  IC50: 7.39 µM
Second compound 3.16 µM
  IC50: 7.73 µM
Second compound 10 µM
  IC50: 6.2 µM
[1]
  viability, T/C: 120%
[2]
  viability, T/C: 151%
[3]
  viability, T/C: 149%
[4]
  viability, T/C: 150%
[5]
  viability, T/C: 99.2%
[6]
  viability, T/C: 22.1%
[7]
  viability, T/C: 130%
[8]
  viability, T/C: 133%
[9]
  viability, T/C: 153%
[10]
  viability, T/C: 151%
[11]
  viability, T/C: 94.5%
[12]
  viability, T/C: 27.2%
[13]
  viability, T/C: 132%
[14]
  viability, T/C: 123%
[15]
  viability, T/C: 145%
[16]
  viability, T/C: 140%
[17]
  viability, T/C: 94.2%
[18]
  viability, T/C: 28.7%
[19]
  viability, T/C: 138%
[20]
  viability, T/C: 139%
[21]
  viability, T/C: 158%
[22]
  viability, T/C: 151%
[23]
  viability, T/C: 99.2%
[24]
  viability, T/C: 32.5%
[25]
  viability, T/C: 124%
[26]
  viability, T/C: 150%
[27]
  viability, T/C: 155%
[28]
  viability, T/C: 172%
[29]
  viability, T/C: 117%
[30]
  viability, T/C: 30.7%
[31]
  viability, T/C: 136%
[32]
  viability, T/C: 145%
[33]
  viability, T/C: 154%
[34]
  viability, T/C: 166%
[35]
  viability, T/C: 91.6%
[36]
  viability, T/C: 20.5%
